# US9820923B2, “Succinate derivatives” (Symrise AG, priority 2013, dated 2017)
# How the values were obtained:
# [1] = tested on: B16V mouse melanoma cells; experiment: Depigmentation effect on melanoma cell cultures; type: cell-based; conditions: 0.6 mM tyrosine and 10 nM MSH, 96 h, read-out: IC50 (Inhibition of pigmentation)
# Procedure: B16V mouse melanoma cells are disseminated in a 96-well micro-titre plate in a concentration of 7.5×10^3 cells/well. After cultivation for 24 h at 37° C. and 5% CO2 in RPMI medium, enriched with 10% foetal calf serum, various concentrations of the test substances and 0.6 mM tyrosine and 10 nM-MSH (-melanocyte stimulating hormone) are added and incubated for a further 96 h. The maximum concentration of the test substances used corresponds to 0.1 times the value of the IC20 value of the cytotoxicity assay. Only tyrosine and -MSH are added to the controls. After incubation, sodium hydroxide solution (final concentrations: 1 M) is added to the culture medium and the absorption (A) is measured after 3 h at 400 nm.
# The inhibition of pigmentation in the presence of the test compounds was calculated using the following equation: Inhibition of pigmentation (%)=100−[(Atest compound/Acontrol)×100] wherein • Atest compound=absorption of the wells with test substance and with cells • Acontrol=absorption of the wells without test substance, but with cells
# From the inhibition of pigmentation (%) in a series of dilutions of test compounds, the IC50 for each test compound is calculated. This is the concentration of a test compound at which pigmentation is inhibited by 50%.
# Heme Oxygenase-1 = experiment: Cellular in vitro heme oxygenase-1 expression assay on NHDF (Western blot); type: cell-based, human; conditions: 24 h, 0.0134% b.w.
# Procedure: NHDF (normal human dermal fibroblasts) cells were disseminated in a 6-well plate in a concentration of 2×10^5 cells/well (DMEM, 10% FCS). After cultivation in fully enriched medium (DMEM, 10% FCS) for 72 h at 37° C. and 5% CO2, the serum content was reduced to 0.1% to synchronize the cell cycle. Various concentrations of the test substances, the negative control (untreated cells) and tert. butylhydrochinon as positive control, are added and incubated for a further 24 h. The maximum concentration of the test substances used corresponds to 0.2 times the value of the IC20 of the cytotoxicity assay. After cell lysis, the protein amount was determined using the Biorad BCA assay. All samples were adjusted to the same protein level before application on a fast Criterion Gel (Biorad) to perform electrophoresis for 20 minutes at 300 V. Thereafter the proteins were transferred to a PVDF membrane on a semi-dry blotter (30 minutes, 25 V). The blotted membrane is blocked for 4 hours in a 5% milk powder solution in TBST at 4° C. After washing, the membrane is incubated with the first antibody solution HO-1 from abcam (1:500 in 1% milk powder in TBST) over night. […] The resulting band pattern is detected with a chemiluminescence sensitive camera system (Vil-ber Loumat). The quantification was done by densitometry, using the Image J freeware software.
# [2] = tested on: Primary human dermal fibroblasts; experiment: Cellular in vitro DCF assay (intracellular ROS); type: cell-based; parameters: unit of the concentration uncertain
# Procedure: Primary human dermal fibroblasts (Lonza) are disseminated in a 96-well microtiter plate in a concentration of 1×10^4 cells/well (DMEM, 10% FKS). After cultivation in fully enriched medium (DMEM, 10% FCS) for 24 h at 37° C. and 5% CO2, the serum content was reduced to 0.1% for further 24 h to synchronize the cell cycle. Confluence was supposed to be around 70% at the time, the incubation with the test substances began. Various concentrations of the test substances, two backgrounds (untreated cells), control (possible with solvent) and Trolox as internal standard (1000 μM) were applied to the cells in DMEM and incubated for further 18-20 h. […], 100 μl H2DCF-DA-solution (2,7-Dichlorfluorescein, 10 μM) incl. DAPI (1:1000) was added to all samples (excluded the background-control) and incubated for one hour to de-esterify the H2DCF-DA by cellular esterases. The resulting H2DCF was thereby trapped inside the cell. After the incubation, the cells were washed and the prooxidant challenge was set (1 mM, 1 h). The resulting fluorescence was read at Ex 504 nm; Em 524 nm. An increased level of ROS (reactive oxygen species) led to an increased amount of fluorescence.
# Results are mean values from 2 independent experiments with quadruple determinations each.
# The inhibition of the oxidation in the presence of test substances was calculated according to the following equation: […]
# The abbreviations have the following meanings: • RFU DAPI: Relative fluorescence units (Ex 380/20, Em 440/40) of the wells with test substance, DAPI and DCF treatment, with cells • RFU DCF: Relative fluorescence units (Ex 485/20, Em 528/20) of the wells with test substance, DAPI and DCF treatment, with cells • RFU control: Relative fluorescence units of the wells without test substance, DAPI and DCF treatment, with cells (The control was calculated like the other samples.) • RFU BLANK: Relative fluorescence units of the wells without test substance, without DAPI and DCF treatment but with cells
# [3] = tested on: HHFSC (Human Hair Follicle Stem Cells); experiment: Cellular in vitro stem cell protection assay (UVB-induced apoptosis, caspase 3/7); type: cell-based; conditions: light or radiation study, 25 mJ/cm^2 UVB, read-out: Inhibition of UV induced apoptosis [%]
# Procedure: HHFSC (Human Hair Follicle Stem Cells) isolated from hair follicle bulge (Celprogen) were cultivated in culture ware pre-coated with Human Hair Follicle Stem Cell Extra-cellular Matrix (Celprogen). The cells were incubated 2 h prior to and 16 h after UVB irradiation with test compounds. Cells were irradiated with 25 mJ/cm^2 UVB in the presence of buffer solution. Apoptosis induction was evaluated by caspase 3/7 protein expression (Caspase-Glo 3/7, Promega) and quantified by chemiluminescence measurement.
# The inhibition of apoptosis induction in the presence of test substances was calculated according to the following equation: […]
# The abbreviations have the following meanings: • RLU test substance: • RLU of the wells with test substance and with UVB irradiation • RLU control: • RLU of the wells without test substance, but with UVB irradiation • RLU control without UVB: • RLU of the wells without test substance and without UVB irradiation
# Hyaluronic acid = experiment: Cellular in vitro hyaluronic acid assay on NHDF (competitive ELISA); type: cell-based, human; conditions: 72 h
# Procedure: NHDF (normal human dermal fibroblasts) cells were disseminated in a 96-well microtiter plate in a concentration of 2×10^4 cells/well (DMEM, 10% FCS). After cultivation in fully enriched medium (DMEM, 10% FCS) for 72 h at 37° C. and 5% CO2, the serum content was reduced to 0.1% to synchronize the cell cycle and incubated for further 24 h. Various concentrations of the test substances and TGF-beta1 as internal standard are added and incubated for 72 h. The maximum concentration of the test substances used corresponds to 0.2 times the value of the IC20 of the cytotoxicity assay. Hyaluronic acid is quantified by a competitive ELISA (TECOmedical TE1017).
# The percent bound for each standard and unknown substance is calculated using the following equation: […]
# A standard curve is generated by plotting the aborptions of the given concentrations in a linear proportion. The gradient of the line is determined and the value of the substances calculated as follows: • 1. value=1/RFU • 2. value=((1. value)−b)/m) • Compound of Hyaluronic acid [ng/ml]=2. value*dilution
smiles,measurement,setting,value
CC1CC(OC(=O)CCC(=O)N(C)C)CC(C)(C)C1 (stereo not shown) [S7a/S7b**],IC50,[1],18.4 µM
same,Up-regulation (HO1-Amount relative to control),Heme Oxygenase-1,14.5-fold
same,Intracellular ROS reduction [%],[2]; concentration 1 (unit uncertain),−2%
same,Intracellular ROS reduction [%],[2]; concentration 10 (unit uncertain),11%
same,Intracellular ROS reduction [%],[2]; concentration 50 (unit uncertain),16.3%
same,Intracellular ROS reduction [%],[2]; concentration 100 (unit uncertain),19.5%
same,inhibition at 20 µM,[3]; 0.02 mM,5%
same,inhibition at 200 µM,[3]; 0.20 mM,32%
same,Stimulation (Hyaluronic acid stimulation relative to control),Hyaluronic acid; 0.00012 % b.w.,34.4%
same,Stimulation (Hyaluronic acid stimulation relative to control),Hyaluronic acid; 0.00120 % b.w.,67.3%
